These are literature values, as cited in US9180090B2, “Non-sedating antihistamine injection formulations and methods of use thereof” (JDP THERAPEUTICS, INC., priority 2009, dated 2015).

The conditions of data set [1]: for Major (potential drug interactions) / Minor (potential drug interactions) / Moderate (potential drug interactions): number of interactions per drugs.com.
For data set [2] the following is noted: oral.

For the molecule `O=C(O)COCCN1CCN(C(c2ccccc2)c2ccc(Cl)cc2)CC1` (racemic) [Cetirizine, (±)-[2-[4-[(4-chlorophenyl)phenylmethyl]-1-piperazinyl]ethoxy]acetic acid], in data set [1], the “Major (potential drug interactions)” value is recorded as 0, the “Minor (potential drug interactions)” value is listed as 5 and the “Moderate (potential drug interactions)” value is on record as 568. Also, in data set [1] (per drugs.com), the Disease state interaction result was “Renal/Liver Disease”.
For `OCCOCCN1CCN(C(c2ccccc2)c2ccc(Cl)cc2)CC1` (racemic) [Hydroxyzine], in data set [1], the “Major (potential drug interactions)” value is listed as 17, the “Minor (potential drug interactions)” value was 6 and the “Moderate (potential drug interactions)” value is on record as 622.
With `Clc1ccc2c(c1)CCc1cccnc1C2=C1CCNCC1` [desloratadine], in data set [2] (single dose), the “AUC0-24 (single dose)” value is “AUC0-24 (single dose) = about 34.2 ng · hr/mL” and the “AUC(single dose)0-inf” value is listed as “AUC(single dose)0-inf = about 35.6 ng/hr/mL”. Also, the AUCss result in data set [2] (steady state) is recorded as “AUCss = about 56.9 ng · hr/mL”.
